Here are results for 13 molecules from US11440880B2, “Thalidomide analogs and methods of use” (The USA, as represented by the Secretary, Department of …, priority 2015, dated 2022).

The subject of data set [1] is fli1:EGFP zebrafish embryos (intersegmental vessel growth). Briefly: fli1:EGFP zebrafish embryo angiogenesis assay. Format: in vivo. Conditions: for minimal effective concentration: Danio rerio, lowest concentration producing an effect, compounds not producing an effect shown at the highest evaluated concentration; for fli1:EGFP angiogenesis n (survived/tested): embryos alive after 24 hours of exposure. More on the design: fli1:EGFP angiogenesis n (survived/tested): concentration or dose not given beside the values. An excerpt: (§1) Zebrafish embryology: The use of zebrafish embryo (Danio rerio) bioassays as a preclinical model in the classification of novel compounds has increased in recent years due to several factors including; low cost, ease of maintenance, speed of embryonic development, transparency of the embryos and genetic conservation between zebrafish and humans (Howe et al., Nature 2013; 496:498; Therapontos et al., PNAS 2009, 106:8573; Mahony et al., PNAS 2013, 110:12703; Beedie et al., Oncotarget 2016, 7(22):33237; Beedie et al., Mol. Cancer Ther. 2015, 14(10):2228). Two established zebrafish reporter lines were used—the fli1:EGFP line, where the fli1 promoter drives expression of enhanced green fluorescent protein within the developing vasculature (Lawson et al., 2002), and the Tg(mpo::EGFP) line (also known as mpo:GFP), which expresses green fluorescent protein via the neutrophil specific myeloperoxidase promoter (Renshaw et al., Blood 2006, 108:3976). The use of these zebrafish transgenic reporter lines allows for the identification of potential anti-angiogenic and anti-inflammatory compounds respectively, and both have been used previously to successfully classify the action of thalidomide analogs (Therapontos et al., 2009; Mahony et al., 2013; Beedie et al., Oncotarget 2016, 7(22):33237; Beedie et al., Mol. Cancer Ther. 2015, 14(10):2228). Zebrafish embryos were treated with analogs as previously described (Mahony et al., 2013). Briefly, fli1:EGFP embryos were collected and embryos were allowed to develop for 24 hours. Embryos were dechorionated manually and exposed to test compounds or vehicle control for a further 24 hours, imaged and analyzed for intersegmental vessel (ISV) growth. At 24 hours post fertilisation (hpf) the ISVs were ideal to study to visualize and analyze the actions of compounds on angiogenesis. At this time point ISVs were rapidly forming beneath the developing head, over the body and had yet to form in the tail (Lawson and Weinstein, Developmental Biology 2002, 248:307; Therapontos and Vargesson, Developmental Dynamics 2010, 239:2761). Additionally, these sprouts would go on to form the bilateral dorsal longitudinal anastomotic vessels. By treating before this fusion and formation occurs, the effect of each compound on the individual vessels as well as overall patterning structural integrity (Isogai et al., Development 2003, 130:5281) could be determined. Tg(mpo::EGFP) were tail fin clipped as previously detailed (Renshaw et al., 2006; Mahony et al., 2013; Beedie et al., Oncotarget 2016, 7(22):33237; Beedie et al., Mol. Cancer Ther. 2015, 14(10):2228) and incubated with test compounds or vehicle control at 72 hours post fertilization. Fish were imaged at 24 hours and the number of migratory neutrophils present at the wound site were counted. Compounds inducing an at least 50% reduction of neutrophils to the wound site were considered to have anti-inflammatory properties in this system. All larvae were assessed for viability and morphological integrity.
To determine if the thalidomide analogs had any effect on angiogenesis, fli1:EGFP embryos (Lawson and Weinstein, Developmental Biology 2002, 248:307-318) were exposed to either vehicle or a compound of interest, over a range of concentrations and over a range of time points starting at 24 hpf. Images were obtained at three time points over 24 hours after exposure to the compounds. The best concentration and time point were selected. CPS49, a compound that is chemically and structurally similar to thalidomide breakdown products, and is tetrafluorinated (which adds stability and bioactivity to the compound) and that causes severe limb defects in chicken embryos, was used as a positive control. The embryos were imaged at 48 hpf (FIGS. 3A3L) and analyzed for both vessel formation and the extent of growth of the vasculature. […]

Data set [2] deals with mpo:GFP zebrafish embryos (neutrophil migration to the wound site). Briefly: mpo:GFP zebrafish fin-clip neutrophil migration (inflammation) assay. Type of data set: in vivo. More on the design: mpo:GFP inflammation n (survived/tested): concentration or dose not given beside the values. Conditions: for minimal effective concentration: Danio rerio, Neutrophil, lowest concentration producing an effect, compounds not producing an effect shown at the highest evaluated concentration; for mpo:GFP inflammation n (survived/tested): embryos survived/tested at the concentration given.
Excerpt: as §1
To assess the immunomodulatory effects of the thalidomide analogs, the mpo:gfp transgenic zebrafish line (Renshaw et al., Blood 2006, 108:3976-3978) was utilized because it is an accepted model of inflammation, and can be used to test the effect of anti-inflammatory agents. These embryos express GFP-tagged myeloperoxidase, where green fluorescence marks the neutrophil cells involved in the inflammatory response process, for example following injury, from 72 hours post fertilization (Renshaw et al., 2006; Mahony et al., 2013; Beedie et al., Oncotarget 2016, 7(22):33237). At 72 hpf the dorsal third of the tail fin was removed and the embryos were immersed in the desired compound or vehicle (FIGS. 5A-5C). The embryos were examined for the effect on the inflammatory response quantified as an induction and migration of neutrophils to the wound site 24 hours later.

Data set [3] concerns TNF-α protein. Briefly: TNF-α protein level (ELISA) in LPS-challenged RAW 264.7 cells. Type of data set: cell-based, mouse. More on the design: key: NS=not significant; a “+” sign=anti-inflammatory or increased cell numbers; a “−” sign=cell toxicity or pro-inflammatory. Conditions: LPS 30 or 60 ng/mL, 24 h. The gist of the method: (§2)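 RAW 264.7 cells pretreated 1 h with compound in DMSO vehicle, then challenged with LPS (30 or 60 ng/mL) for 24 h at 37° C. Conditioned-media nitrite by Griess (520 nm, sodium nitrite standard curve, 1.5 μM cutoff) in μM; mouse TNF-α by ELISA as pg/ml or % change from control.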

Data set [4] deals with nitrite levels in the culture media. Briefly: Nitrite level (Griess Reagent System) in LPS-challenged RAW 264.7 cells. Type of data set: cell-based, mouse. Also noted: key: NS=not significant; a “+” sign=anti-inflammatory or increased cell numbers; a “−” sign=cell toxicity or pro-inflammatory. Conditions: LPS 30 or 60 ng/mL, 24 h. The essentials: as §2
The test system of data set [5] is RAW 264.7 cells. Briefly: Cell viability (CellTiter 96 AQueous One) of LPS-challenged RAW 264.7 cells. Format: cell-based, mouse. Also noted: key: NS=not significant; a “+” sign=anti-inflammatory or increased cell numbers; a “−” sign=cell toxicity or pro-inflammatory. The gist of the method:
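RAW 264.7 murine macrophages pretreated 1 h with compound or DMSO vehicle, then challenged with LPS (serotype 055:B5) at 30 or 60 ng/mL final for 24 h. After media replacement, viability measured by tetrazolium (MTS) conversion, absorbance at 490 nm, reported as O.D.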

Turning to `O=C1c2cccc([N+](=O)[O-])c2CN1C12CC3CC(CC(C3)C1)C2` [Compound 76, 2,3-Dihydro-4-nitro-2-(tricyclo[3.3.1.1^3,7]dec-1-yl)-1H-isoindol-1-one], the minimal effective concentration in data set [1] is 10 µg/mL; in data set [2], 100 µg/mL. The “fli1:EGFP angiogenesis n (survived/tested)” value in data set [1] is 28/32. In data set [2], the “mpo:GFP inflammation n (survived/tested)” value is recorded as 5/11. The TNF-α entry in data set [3] (1 μM) is “NS”; in data set [3] (10 μM), “NS”; in data set [3] (30 μM), “+”. Besides, the Nitrite entry in data set [4] (1 μM) is recorded as “NS”; in data set [4] (10 μM) it was “+”; in data set [4] (30 μM) it was “+”. For the same molecule, the Viability entry in data set [5] (1 μM), in data set [5] (10 μM) and in data set [5] (30 μM) was “NS” throughout.
As to `O=C1CCC(N2Cc3ccccc3C2=O)C(=O)N1CSC(=S)NC1CCCCC1` (centres unmarked) [Compound 52], the minimal effective concentration in data set [1] and in data set [2] was 100 µg/mL throughout. For the same molecule, the “fli1:EGFP angiogenesis n (survived/tested)” value in data set [1] was 6/7. In data set [2], the “mpo:GFP inflammation n (survived/tested)” value was 7/21. Besides, the TNF-α result in data set [3] (1 μM), in data set [3] (10 μM) and in data set [3] (30 μM) was “+” in each case. The Viability entry in data set [5] (1 μM), in data set [5] (10 μM) and in data set [5] (30 μM) was “NS” throughout.
Regarding `O=C1CCC(N2Cc3ccccc3C2=O)C(=O)N1CSC(=S)N1CCCCC1` (centres unmarked) [Compound 53], the minimal effective concentration in data set [1] and in data set [2] was 10 µg/mL throughout. The “fli1:EGFP angiogenesis n (survived/tested)” value in data set [1] is on record as 9/14. In data set [2], the “mpo:GFP inflammation n (survived/tested)” value is on record as 13/19. Also, the TNF-α entry in data set [3] (1 μM) is listed as “+”; in data set [3] (10 μM) it was “+”; in data set [3] (30 μM), “NS”. Besides, the Viability result in data set [5] (1 μM) is given as “−”; in data set [5] (10 μM), “NS”; in data set [5] (30 μM), “+”.
Take `Nc1cccc2c1CN(C1CCC(=S)NC1=O)C2=S` (centres unmarked) [Compound 32]: the minimal effective concentration in data set [1] worked out at 100 µg/mL; in data set [2], 10 µg/mL. Further, the “fli1:EGFP angiogenesis n (survived/tested)” value in data set [1] is 21/25. In addition, in data set [2], the “mpo:GFP inflammation n (survived/tested)” value is 6/15. Also, the TNF-α result in data set [3] (3 μM), in data set [3] (10 μM) and in data set [3] (30 μM) was “+” each time. In addition, the Viability result in data set [5] (3 μM), in data set [5] (10 μM) and in data set [5] (30 μM) was “NS” each time.
Turning to `O=C1CCC(N2Cc3ccccc3C2=O)C(=O)N1CN1C(=S)c2ccccc2C1=S` (centres unmarked) [Compound 51], the results for the minimal effective concentration in data set [1] and in data set [2] were 200 µg/mL and 1 µg/mL, respectively. Also, in data set [1], the “fli1:EGFP angiogenesis n (survived/tested)” value was 7/25. For the same molecule, in data set [1] (exposure from 24 hpf, imaged at 48 hpf), the “concentration at which anti-angiogenic activity was shown” value is 200 µg/mL. Besides, in data set [2], the “mpo:GFP inflammation n (survived/tested)” value is recorded as 4/11. Moreover, the TNF-α entry in data set [3] (1 μM), in data set [3] (10 μM) and in data set [3] (30 μM) was “+” in each case. In addition, the Viability entry was “NS” in data set [5] (1 μM), “NS” in data set [5] (10 μM) and “−” in data set [5] (30 μM).
Turning to `O=C1c2cccc([N+](=O)[O-])c2C(=O)N1c1nc2ccc(C(F)(F)F)cc2s1` [Compound 60], in data set [1], the minimal effective concentration was determined as 10 µg/mL and the “fli1:EGFP angiogenesis n (survived/tested)” value was 3/10. In data set [2], the minimal effective concentration is 1 µg/mL and the “mpo:GFP inflammation n (survived/tested)” value is on record as 5/15.
In the case of `O=C1NC(=S)CCC1N1C(=O)c2ccc(O)cc2C1=O` (centres unmarked) [Compound 17], in data set [1], the minimal effective concentration worked out at 15 µg/mL and the “fli1:EGFP angiogenesis n (survived/tested)” value was 26/50. Moreover, in data set [2], the minimal effective concentration amounted to 10 µg/mL and the “mpo:GFP inflammation n (survived/tested)” value was 5/5.
Consider `Nc1ccc2c(c1)C(=O)N(C1CCC(=O)NC1=O)C2` (centres unmarked) [Compound 34], for which, in data set [1], the minimal effective concentration was determined as 100 µg/mL and the “fli1:EGFP angiogenesis n (survived/tested)” value is given as 13/20. Also, in data set [2], the minimal effective concentration is 100 µg/mL and the “mpo:GFP inflammation n (survived/tested)” value is on record as 7/9.
`O=C1NC(=S)CCC1N1C(=O)c2cccc(O)c2C1=O` (centres unmarked) [Compound 14]: in data set [1], the minimal effective concentration is 10 µg/mL and the “fli1:EGFP angiogenesis n (survived/tested)” value was 7/23. Besides, in data set [2], the minimal effective concentration was 10 µg/mL and the “mpo:GFP inflammation n (survived/tested)” value is 14/24.
In the case of `CC(=O)Oc1ccc2c(c1)C(=O)N(C1CCC(=O)NC1=O)C2=O` (centres unmarked) [Compound 18], in data set [1], the minimal effective concentration turned out to be 50 µg/mL and the “fli1:EGFP angiogenesis n (survived/tested)” value is given as 24/43. In data set [2], the minimal effective concentration was found to be 50 µg/mL and the “mpo:GFP inflammation n (survived/tested)” value is 14/14.
For `O=C1CCC(N2Cc3ccc([N+](=O)[O-])cc3C2=O)C(=O)N1` (centres unmarked) [Compound 33], in data set [1], the minimal effective concentration was 100 µg/mL and the “fli1:EGFP angiogenesis n (survived/tested)” value is 15/21. In data set [2], the minimal effective concentration was determined as 10 µg/mL and the “mpo:GFP inflammation n (survived/tested)” value is 4/15.
Take `CC(C)Nc1ccc2c(c1)C(=O)N(C1CC=CNC1=O)C2` (centres unmarked) [Compound 46, 6-Isopropylamino-2-(3,4-dihydro-2-pyridone-3-yl)phthalimidine]: in data set [1], the minimal effective concentration is 10 µg/mL and the “fli1:EGFP angiogenesis n (survived/tested)” value is reported as 14/30. Moreover, in data set [2], the minimal effective concentration is 10 µg/mL and the “mpo:GFP inflammation n (survived/tested)” value was 24/50.
On to `O=C1CCC(N2C(=O)c3ccc(OCc4ccccc4)cc3C2=O)C(=O)N1` (centres unmarked) [Compound 20], for which, in data set [1], the minimal effective concentration was 10 µg/mL and the “fli1:EGFP angiogenesis n (survived/tested)” value is listed as 51/79. For the same molecule, in data set [2], the minimal effective concentration stood at 10 µg/mL and the “mpo:GFP inflammation n (survived/tested)” value is listed as 8/14.
